Inconclusive results are not listed. Activity calls are given as the source filed them.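 The calls were made as follows: active = Compounds that reduce signal, with fitted half-maximal dose at or under twice the top valid tested dose; inconclusive = Poor fit, or flat curve losing 30 to 70% of signal; inactive = Potency past limit, flat within 30%, or opposite direction.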
Test: viability loss in HEK293T cells – cell-based, ATP luminescence, cherry-pick samples, cytotoxicity control, dose response (AID 687005)
Settings: HEK293T viability, ATP luminescence (CellTiter-Glo), 48 h

Structure (SMILES)	activity change, negative = cytotoxicity (at 26 µM (top of the series))	other results
COC(=O)C1=C(C)N(Cc2ccc(Cl)cc2)C(=S)NC1c1ccc(F)cc1 (configuration not stated)	-32.8% (inactive)	
C[C@@H]1CN([C@@H](C)CO)C(=O)c2cc(NS(=O)(=O)c3ccccc3)ccc2O[C@H]1CN(C)C(=O)NC1CCCCC1		activity change, negative = cytotoxicity (at 23.5 µM (top of the series)): -17.7% (inactive)
CC=Cc1ccc2n(c1=O)C[C@@H]1[C@@H](CO)[C@H](C(=O)NCc3ccc4c(c3)OCO4)[C@H]2N1C(=O)C1CC1 (mixture of isomers)	-8.54% (inactive)	
O=C(C[C@H]1C=C[C@H](NC(=O)C2CCC2)[C@@H](CO)O1)NC1CCC1	-2.82% (inactive)	
CC(C)NC(=O)NCC[C@H]1CC[C@H](NC(=O)CN(C)C)[C@H](CO)O1	7.79% (inactive)	
CO[C@@H]1CN(C)C(=O)c2cc(NC(=O)C3CCOCC3)ccc2OC[C@H](C)NC[C@@H]1C		activity change, negative = cytotoxicity (at 23.5 µM (top of the series)): -2.94% (inactive)
C[C@H](CO)N1C[C@H](C)[C@@H](CN(C)CC2CCOCC2)Oc2ncc(C#Cc3ccc(F)cc3)cc2C1=O	-11.1% (inactive)	
Cc1noc(C)c1NC(=O)Nc1ccc2c(c1)C(=O)N([C@H](C)CO)C[C@@H](C)[C@H](CN(C)C(=O)Nc1ccc(F)cc1)OCCCC[C@@H](C)O2	-26.1% (inactive)	
C[C@@H]1CN([C@@H](C)CO)C(=O)Cc2cc(NS(=O)(=O)c3ccccc3)ccc2O[C@@H]1CN(C)Cc1ccc(Cl)c(Cl)c1	-71.5% (inactive)	
CO[C@@H]1CN(C)C(=O)c2cc(NS(=O)(=O)C3CCCCC3)ccc2OC[C@H](C)NC[C@@H]1C	0.127% (inactive)	
Cc1ccc(S(=O)(=O)N(CC(=O)NCCSC2CCCCC2)c2ccccc2F)cc1	5.79% (inactive)	
C[C@H]1CN([C@@H](C)CO)C(=O)c2cc(NC(=O)Nc3ccc4c(c3)OCO4)ccc2O[C@@H]1CN(C)CC1CCCCC1		activity change, negative = cytotoxicity (at 23.5 µM (top of the series)): -55.7% (inactive)
CCC(=O)N1[C@H](CO)[C@H](c2ccc(-c3ccc(F)cc3)cc2)[C@@H]1CNC(C)=O	-42.1% (inactive)	
CCC(=O)N1[C@H](C(=O)Nc2ccccc2)[C@@H](CO)[C@@H]2Cn3c(ccc(-c4ccncc4)c3=O)[C@@H]21	24.7% (inactive)	
O=C(NC(=S)Nc1ccccc1N1CCOCC1)c1ccc(Br)cc1	-8.37% (inactive)	
CC(C)NC(=O)Nc1ccc2c(c1)CC(=O)N([C@@H](C)CO)C[C@@H](C)[C@H](CN(C)C(=O)Nc1ccc3c(c1)OCO3)O2	50.2% (inactive)	

Structure (SMILES)	activity change, negative = cytotoxicity (at 26 µM (top of the series))	other results
COc1ccc(-c2cnc3c(c2)C(=O)N([C@@H](C)CO)C[C@@H](C)[C@@H](CN(C)S(C)(=O)=O)O3)cc1	6.27% (inactive)	
Cc1cccc(N2CCN(C(=O)C3CCC(=O)N3C(C)C)CC2C)c1 (configuration not stated)		activity change, negative = cytotoxicity (at 35 µM (top of the series)): 21% (inactive)
CC(C)NC(=O)Nc1ccc2c(c1)CC(=O)N([C@@H](C)CO)C[C@H](C)[C@H](CN(C)Cc1ccc3c(c1)OCO3)O2		activity change, negative = cytotoxicity (at 23.5 µM (top of the series)): 26.2% (inactive)
C[C@H](CO)N1C[C@H](C)[C@H](CN(C)CC2CCCCC2)Oc2ccc(NC(=O)Nc3ccc4c(c3)OCO4)cc2C1=O		activity change, negative = cytotoxicity (at 23.5 µM (top of the series)): -3.46% (inactive)
CC(C)NC(=O)Nc1cccc2c1O[C@H](CN(C)C)[C@H](C)CN([C@@H](C)CO)C2=O	22% (inactive)	
COC(=O)C1=C(C)N(CC(C)C)C(=S)NC1c1ccc(Cl)cc1 (configuration not stated)		activity change, negative = cytotoxicity (at 30 µM (top of the series)): -20.8% (inactive)
O=C(Cc1cccs1)N1CCN(c2ccccc2)CC1		activity change, negative = cytotoxicity (at 42 µM (top of the series)): 21.1% (inactive)
Fc1ccccc1NC(=S)NCCc1cccc(Cl)c1	1.09% (inactive)	
Cc1ccc(S(=O)(=O)Nc2ccc3c(c2)C(=O)N([C@@H](C)CO)C[C@H](C)[C@H](CN(C)C(=O)Nc2ccc(C(F)(F)F)cc2)O3)cc1		activity change, negative = cytotoxicity (at 23.5 µM (top of the series)): -1.43% (inactive)
COc1ccccc1CNC(=S)NCc1ccc(Cl)cc1	13.5% (inactive)	
C[C@@H]1CN([C@H](C)CO)C(=O)c2cc(-c3ccc(F)cc3)cnc2O[C@H]1CN(C)CC1CCCCC1	6.84% (inactive)	
O=C(NC(=S)Nc1ccccc1N1CCOCC1)c1cccc([N+](=O)[O-])c1	-5.81% (inactive)	
COc1ccccc1C(=O)Nc1ccc2c(c1)C(=O)N(C)C[C@@H](OC)[C@H](C)CN(C)[C@@H](C)CO2	0.103% (inactive)	
C[C@H](NC(=O)C[C@@H]1CC[C@@H]2[C@H](COC[C@@H](O)CN2C(=O)Nc2cccc(F)c2)O1)c1ccccc1	-12.7% (inactive)	
COc1ccc(NC(=S)NCc2ccc(Cl)cc2)c(OC)c1	0.916% (inactive)	
C[C@@H]1CN([C@@H](C)CO)C(=O)c2cccc(NC(=O)c3ccncc3)c2O[C@H]1CN(C)C(=O)Nc1ccccc1	6.14% (inactive)	

— PubChem BioAssay AID687005 (Broad Institute, 2013)
